This is an account of results in patent US20090192308A1, “1,5-DIHYDRO-2H-PYRROL-2-ONE TRICYCLIC DERIVATIVES HAVING ANTI-INFECTIVE ACTIVITY” (CPC BIOTECH S. r.l., priority 2008, published 2009).

Values after ≈ are worked out from the molar mass of the structure shown. “Also recorded” adds a separate entry of the source.

Data set [1] relates to Acinetobacter baumannii MDR. The experiment in a line: agar spot / disk diffusion plate method. Type of data set: cell-based. The conditions noted are these: spot 10 μl, inoculum 10^8 CFU/ml, (Io) and (Ir) 100 mM, average of three points. Here is the method: (§1) The antimicrobial activity of the substances (Ii), (Il), (Im), (In), (Io), (Ip), (Iq), (Ir), (Is) was evaluated towards 11 clinically isolated Gram-negative and Gram-positive bacterial strains, mostly multi-antibiotic resistant (MDR), and towards two types of yeast of the genus Candida.
(§2) A plate method was used (agar spot method or disk diffusion assay—spot quantity 10 μl, bacterial inoculum 10^8 CFU/ml and DMSO negative control): the (Io) and (Ir) concentration used was 100 mM. The antimicrobial activity was evaluated by measuring the diameter of the microbial growth inhibition halo expressed in millimetres, the reported values being the average of three experimental points.

The test system of another data set is Candida parapsilosis. Kind of data set: agar spot / disk diffusion plate method. Type of data set: cell-based. The conditions noted are these: spot 10 μl, inoculum 10^8 CFU/ml, (Io) and (Ir) 100 mM, average of three points. Here is the method:
as §1, §2

For another data set, the system named is Salmonella spp. The experiment in a line: agar spot / disk diffusion plate method. The conditions noted are these: spot 10 μl, inoculum 10^8 CFU/ml, (Io) and (Ir) 100 mM, average of three points. Type of data set: cell-based. Here is the method: as §1, §2
Data set [2] relates to Pseudomonas aeruginosa MDR. Kind of data set: agar spot / disk diffusion plate method. It counts as cell-based. Conditions: spot 10 μl, inoculum 10^8 CFU/ml, (Io) and (Ir) 100 mM, average of three points. Here is the method: as §1, §2
In a further data set the test system is Escherichia coli. Kind of data set: agar spot / disk diffusion plate method. Type of data set: cell-based. Conditions: spot 10 μl, inoculum 10^8 CFU/ml, (Io) and (Ir) 100 mM, average of three points. As to the method: as §1, §2
Data set [3] concerns Staphylococcus aureus MRSA. The experiment in a line: agar spot / disk diffusion plate method. Type of data set: cell-based. Conditions: spot 10 μl, inoculum 10^8 CFU/ml, (Io) and (Ir) 100 mM, average of three points. As to the method:
as §1, §2

For data set [4], the system named is Staphylococcus haemolyticus MDR. The experiment in a line: agar spot / disk diffusion plate method. Type of data set: cell-based. Conditions: spot 10 μl, inoculum 10^8 CFU/ml, (Io) and (Ir) 100 mM, average of three points. As to the method:
as §1, §2

A further data set deals with Candida albicans. The experiment in a line: agar spot / disk diffusion plate method. It counts as cell-based. The conditions noted are these: spot 10 μl, inoculum 10^8 CFU/ml, (Io) and (Ir) 100 mM, average of three points. Here is the method:
as §1, §2

For data set [5] the following is noted: compared with taurine and hypotaurine; cited from earlier work.
The conditions of data set [6]: in vivo biological studies, cited from earlier work.
In data set [7] the test system is 11 clinically isolated Gram-negative and Gram-positive bacterial strains, mostly MDR, and two types of yeast of the genus Candida. Kind of data set: antimicrobial activity towards clinical isolates and yeasts (overall). It counts as cell-based. Conditions: pathogens resistant to β-lactam antibiotics or multi-drug resistant, and yeasts. Here is the method: as §1, §2

The subject of a further data set is Serratia marcescens. Kind of data set: agar spot / disk diffusion plate method. It counts as cell-based. The conditions noted are these: spot 10 μl, inoculum 10^8 CFU/ml, (Io) and (Ir) 100 mM, average of three points. As to the method:
as §1, §2

For the next data set, the system named is Klebsiella pneumonite. The experiment in a line: agar spot / disk diffusion plate method. Type of data set: cell-based. Conditions: spot 10 μl, inoculum 10^8 CFU/ml, (Io) and (Ir) 100 mM, average of three points. As to the method: as §1, §2
Data set [8] relates to Enterococcus faecalis MDR. Kind of data set: agar spot / disk diffusion plate method. Type of data set: cell-based. The conditions noted are these: spot 10 μl, inoculum 10^8 CFU/ml, (Io) and (Ir) 100 mM, average of three points. As to the method:
as §1, §2

Another data set concerns Enterococcus faecium MDR. The experiment in a line: agar spot / disk diffusion plate method. It counts as cell-based. Conditions: spot 10 μl, inoculum 10^8 CFU/ml, (Io) and (Ir) 100 mM, average of three points. As to the method:
as §1, §2

In a further data set the test system is Klebsiella oxytoca. Kind of data set: agar spot / disk diffusion plate method. Type of data set: cell-based. Conditions: spot 10 μl, inoculum 10^8 CFU/ml, (Io) and (Ir) 100 mM, average of three points. As to the method: as §1, §2
In data set [9] the test system is methicillin-resistant Staphylococcus aureus strain (MRSA). The experiment in a line: MIC by microdilutions in broth. Type of data set: cell-based. Here is the method: The minimum inhibitory concentration (MIC) of the substances (Io) and (Ir) towards the methicillin-resistant Staphylococcus aureus strain (MRSA) was then evaluated by the method of microdilutions in broth: it should be noted that Staphylococcus aureus (MRSA) is one of the main multi-resistant bacteria causing serious problems in hospitals. The measured MICs were 6.25 mmol/l and 1.56 mmol/l for (Io) and (Ir) respectively.

Consider `O=C1C2=C(SCCN2)C2CSCCN12` (stereo not drawn) [Ia, 3,4,7,8,10,10a-hexahydro-2H,5H-pyrrolo[2,1-c:3,4-b′]bis[1,4]thiazin-5-one, reference compound], for which the “diameter of the microbial growth inhibition halo” value in data set [1] is 4 millimetres; with Candida parapsilosis it was 5 millimetres; in the data set with Salmonella spp., 3 millimetres; in data set [2] it was below 2 millimetres; with Escherichia coli, below 2 millimetres; in [3] it was 4 millimetres. Besides, the “diameter of the microbial growth inhibition halo” value in data set [4] is listed as below 2 millimetres; in the data set on Candida albicans it was 6 millimetres. For the same molecule, the “antioxidant activity (in words)” value in [5] is given as “strong antioxidant activity”. The “antioxidant properties in vivo (in words)” value in data set [6] is reported as “considerable antioxidant properties”. Also, the “toxicity in vivo (in words)” value in data set [6] (high doses) is reported as “total non-toxicity even at high doses”.

With `CN1CCSC2=C1C(=O)N1CCSCC21` (stereo not drawn) [Ii], the “antibiotic activity (in words)” value in [7] was “have shown antibiotic activity”.

As to `CCN1CCSC2=C1C(=O)N1CCSCC21` (stereo not drawn) [Il], the “antibiotic activity (in words)” value in data set [7] is reported as “have shown antibiotic activity”.

Take `CCCN1CCSC2=C1C(=O)N1CCSCC21` (stereo not drawn) [Im]: the “antibiotic activity (in words)” value in [7] is recorded as “have shown antibiotic activity”.

With `CC(C)N1CCSC2=C1C(=O)N1CCSCC21` (stereo not drawn) [In], the “antibiotic activity (in words)” value in data set [7] is “have shown antibiotic activity”.

Regarding `CC(C)=CCN1CCSC2=C1C(=O)N1CCSCC21` (stereo not drawn) [Io], the “diameter of the microbial growth inhibition halo” value in data set [1] is recorded as 11 millimetres; in the data set with Serratia marcescens, 7 millimetres; with Klebsiella pneumonite, 10 millimetres; in the data set on Candida parapsilosis, 8 millimetres; in the data set on Salmonella spp., 10 millimetres; in [2], 11 millimetres. The “diameter of the microbial growth inhibition halo” value in data set [8] stood at 9 millimetres; in the data set on Escherichia coli it was 12 millimetres; in data set [3] it was 11.4 millimetres; in data set [4], 13 millimetres; in the data set on Enterococcus faecium MDR, 8 millimetres; with Klebsiella oxytoca it was 8.6 millimetres. The “diameter of the microbial growth inhibition halo” value in the data set on Candida albicans stood at 10 millimetres. Moreover, in data set [9], the “minimum inhibitory concentration (MIC)” value was determined as 6.25 mmol/L (≈ 1850 µg/mL). Besides, in data set [7], the “antibiotic activity (in words)” value is reported as “have shown antibiotic activity”.

As for `O=C1C2=C(SCCN2Cc2ccccc2)C2CSCCN12` (stereo not drawn) [Ip], in data set [7], the “antibiotic activity (in words)” value is on record as “have shown antibiotic activity”.

Regarding `O=C1C2=C(SCCN2CCc2ccccc2)C2CSCCN12` (stereo not drawn) [Iq], the “antibiotic activity (in words)” value in [7] is on record as “have shown antibiotic activity”.

Turning to `CC(C)=CCC/C(C)=C/CN1CCSC2=C1C(=O)N1CCSCC21` (stereo not drawn) [Ir], the “diameter of the microbial growth inhibition halo” value in [1] is listed as 13 millimetres; in the data set on Serratia marcescens, 11 millimetres; in the data set with Klebsiella pneumonite, 11.5 millimetres; with Candida parapsilosis, 9.8 millimetres; in the data set with Salmonella spp., 11 millimetres; in [2], 12 millimetres. In addition, the “diameter of the microbial growth inhibition halo” value in data set [8] came out at 13.7 millimetres; in the data set with Escherichia coli it was 12 millimetres; in data set [3], 18.6 millimetres; in [4], 15 millimetres; in the data set with Enterococcus faecium MDR it was 14.3 millimetres; in the data set with Klebsiella oxytoca, 9.8 millimetres. Also, in the data set with Candida albicans, the “diameter of the microbial growth inhibition halo” value was 13 millimetres. The “minimum inhibitory concentration (MIC)” value in data set [9] was 1.56 mmol/L (≈ 569 µg/mL). For the same molecule, in data set [7], the “antibiotic activity (in words)” value is given as “have shown antibiotic activity; also recorded: best activity characteristics for the widest spectrum; also recorded: excellent wide spectrum antibiotic activity”.

Regarding `O=C1C2=C(SCCN2c2ccc(-c3ccccc3)cc2)C2CSCCN12` (stereo not drawn) [Is], the “antibiotic activity (in words)” value in data set [7] was “have shown antibiotic activity”.
